Key:
[1] = tested on: male Sprague-Dawley rats; assay: Amphetamine-induced hyperlocomotion in rats; settings: 10 mg/kg p.o., amphetamine 0.25 mg/kg s.c., p<0.001
[2] = biological target: T1, Human M4 (Homo sapiens, UniProt P08173); assay: M4 cell-based functional assay (calcium mobilization); design: expressed in transfected cells; settings: for Emax at 30 µM: % ACh maximum at 30 μM; for EC50: CHO-K1 hM4-Gqi5 cells, calcium flux, increase in EC20 acetylcholine response
T1 sequence (P08173 1-479): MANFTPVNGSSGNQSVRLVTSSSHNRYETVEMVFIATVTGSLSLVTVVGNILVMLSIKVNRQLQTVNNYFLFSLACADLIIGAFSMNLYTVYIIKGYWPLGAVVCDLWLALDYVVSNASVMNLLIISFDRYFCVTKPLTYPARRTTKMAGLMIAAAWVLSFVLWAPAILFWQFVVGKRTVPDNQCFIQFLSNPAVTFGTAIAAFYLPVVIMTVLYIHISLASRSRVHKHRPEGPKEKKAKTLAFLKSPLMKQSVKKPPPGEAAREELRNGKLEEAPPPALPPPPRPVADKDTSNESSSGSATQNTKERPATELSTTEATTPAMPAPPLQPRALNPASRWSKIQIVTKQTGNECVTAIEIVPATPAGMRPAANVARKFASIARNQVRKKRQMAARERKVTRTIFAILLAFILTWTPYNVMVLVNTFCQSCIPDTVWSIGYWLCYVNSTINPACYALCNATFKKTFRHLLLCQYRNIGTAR
In short: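 CHO-K1 cells stably co-expressing hM4 and chimeric Gqi5, loaded with Fluo-4-AM (1.15 μM final, 45 min, 37° C). Compound added ~140 s before EC20 then EC80 acetylcholine; calcium flux by kinetic fluorescence (ex 480/em 530 nm), expressed as fold over basal and normalized to maximal ACh response (1 mM).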

Structure (SMILES) | Emax at 30 µM [2] [%] | EC50 [2] [µM] | percent reversal of amphetamine-induced hyperlocomotion [1] [%]
Cc1nnc2sc(C(=O)NCc3ccc(S(=O)(=O)C(F)(F)F)cc3)c(N)c2c1C [VU0467154, reference compound] | – | – | 52.7
[2H]C([2H])([2H])n1nc2nc(N3CCc4nc(C5(F)CC5)sc4C3)c(C)c(C)n2c1=O [Compound 71, 7-(2-(1-fluorocyclopropyl)-6,7-dihydrothiazolo[5,4-c]pyridin-5(4H)-yl)-5,6-dimethyl-2-(methyl-d3)-[1,2,4]triazolo[4,3-a]pyrimidin-3(2H)-one] | 83 | 0.007 | –
Cc1cc2nccnc2nc1N1CCc2nc(Cl)sc2C1 [Compound 61, 2-chloro-5-(7-methylpyrido[2,3-b]pyrazin-6-yl)-4,5,6,7-tetrahydrothiazolo[5,4-c]pyridine] | 68 | 0.414 | –
Cc1nc(Cl)c(C)c(N2CCc3nc(C)sc3C2)n1 [Compound 9, 5-(6-chloro-2,5-dimethylpyrimidin-4-yl)-2-methyl-4,5,6,7-tetrahydrothiazolo[5,4-c]pyridine] | 98 | 0.66 | –
Cc1cc2nc(C(=O)N3CC4(COC4)C3)cc(=O)n2nc1N1CCc2nc(Br)sc2C1 [Compound 47, 7-(2-bromo-6,7-dihydrothiazolo[5,4-c]pyridin-5(4H)-yl)-8-methyl-2-(2-oxa-6-azaspiro[3.3]heptane-6-carbonyl)-4H-pyrimido[1,2-b]pyridazin-4-one] | 66 | 1.94 | –
Cc1cc2nccnc2nc1N1CCc2nc(-c3cccs3)sc2C1 [Compound 56, 5-(7-methylpyrido[2,3-b]pyrazin-6-yl)-2-(thiophen-2-yl)-4,5,6,7-tetrahydrothiazolo[5,4-c]pyridine] | 50 | 2.39 | –
Cc1cc(C#N)cnc1N1CCc2nc(C(N)=O)sc2C1 [Compound 21, 5-(5-cyano-3-methylpyridin-2-yl)-4,5,6,7-tetrahydrothiazolo[5,4-c]pyridine-2-carboxamide] | 98 | 0.301 | –
Cc1c(C#N)nnc(N2CCc3nc(Nc4cccc(F)c4)sc3C2)c1C [Compound 6, 6-(2-((3-fluorophenyl)amino)-6,7-dihydrothiazolo[5,4-c]pyridin-5(4H)-yl)-4,5-dimethylpyridazine-3-carbonitrile] | 41 | > 10 | –
Cc1cc(C#N)cnc1N1CCc2nc(-c3cncs3)sc2C1 [Compound 3, 5-methyl-6-(2-(thiazol-5-yl)-6,7-dihydrothiazolo[5,4-c]pyridin-5(4H)-yl)nicotinonitrile] | 45 | > 10 | –
CCOC(=O)c1nc2c(s1)CN(c1nc3nccnc3cc1C)CC2 [Compound 58, ethyl 5-(7-methylpyrido[2,3-b]pyrazin-6-yl)-4,5,6,7-tetrahydrothiazolo[5,4-c]pyridine-2-carboxylate] | 86 | 1.84 | –
Cc1nc2c(s1)CN(c1ncc(C#N)cc1C)CC2 [Compound 15, 5-methyl-6-(2-methyl-6,7-dihydrothiazolo[5,4-c]pyridin-5(4H)-yl)nicotinonitrile] | 87 | 0.371 | –

More lines, in order of falling EC50 [2], values ahead:

Emax at 30 µM [2] [%] | EC50 [2] [µM] | Structure (SMILES) | percent reversal of amphetamine-induced hyperlocomotion [1] [%]
91 | 0.147 | Cc1ccc2ncnc(N3CCc4nc(Br)sc4C3)c2c1 [Compound 30, 2-bromo-5-(6-methylquinazolin-4-yl)-4,5,6,7-tetrahydrothiazolo[5,4-c]pyridine] | –
85 | 0.114 | Cc1c(C#N)nnc(N2CCc3nc(Br)sc3C2)c1C [Compound 10, 6-(2-bromo-6,7-dihydrothiazolo[5,4-c]pyridin-5(4H)-yl)-4,5-dimethylpyridazine-3-carbonitrile] | –
91 | 0.037 | Cc1cc2nc(C(F)(F)F)cc(=O)n2nc1N1CCc2nc(Br)sc2C1 [Compound 36, 7-(2-bromo-6,7-dihydrothiazolo[5,4-c]pyridin-5(4H)-yl)-8-methyl-2-(trifluoromethyl)-4H-pyrimido[1,2-b]pyridazin-4-one] | –
109 | 0.018 | Cc1c(N2CCc3nc(C4(F)CC4)sc3C2)nc2nn(CC3CC3)c(=O)n2c1C [Compound 78, 2-(cyclopropylmethyl)-7-(2-(1-fluorocyclopropyl)-6,7-dihydrothiazolo[5,4-c]pyridin-5(4H)-yl)-5,6-dimethyl-[1,2,4]triazolo[4,3-a]pyrimidin-3(2H)-one] | –
111 | 0.015 | Cc1c(N2CCc3nc(C4CC4)sc3C2)nc2nn(CC3CC3)c(=O)n2c1C [Compound 75, 7-(2-cyclopropyl-6,7-dihydrothiazolo[5,4-c]pyridin-5(4H)-yl)-2-(cyclopropylmethyl)-5,6-dimethyl-[1,2,4]triazolo[4,3-a]pyrimidin-3(2H)-one] | –
121 | 0.009 | Cc1c(N2CCc3nc(C4CC4)sc3C2)nc2nn(C)c(=O)n2c1C [Compound 77, 7-(2-cyclopropyl-6,7-dihydrothiazolo[5,4-c]pyridin-5(4H)-yl)-2,5,6-trimethyl-[1,2,4]triazolo[4,3-a]pyrimidin-3(2H)-one] | –

Reference: patent US12139498B1, “Positive allosteric modulators of the muscarinic acetylcholine receptor M4” (Vanderbilt University, priority 2023, dated 2024)
